Assay results taken from article PMC3367910 (PLoS ONE, 2012).

Tested on: T1, chlorpyrifos hydrolase (CPH)
T1 construct: native enzyme purified from mycelial cell extract; N-terminal MEPDGELSALTQGANS; gene not cloned
Format: biochemical, Cladosporium cladosporioides

| SMILES | Km [µM] |
| --- | --- |
| CCOP(=S)(OCC)Oc1nc(Cl)c(Cl)cc1Cl [Chlorpyrifos, O, O-diethyl O-(3,5,6-trichloro-2-pyridyl) phosphorothioate] | 6.8 ± 0.4 |
| CCOC(=O)CC(SP(=S)(OC)OC)C(=O)OCC (centres unmarked) [Malathion] | 44.4 ± 2.1 |
| COP(N)(=O)SC (centres unmarked) [Methamidophos] | 31.8 ± 1.7 |
| COP(=S)(OC)Oc1ccc([N+](=O)[O-])cc1 [Methyl parathion] | 12.5 ± 1.4 |
| CCOP(=S)(OCC)Oc1ccc([N+](=O)[O-])cc1 [Parathion] | 9.8 ± 0.3 |
